Measured values as given in ChEMBL document CHEMBL2150853 (Eur J Med Chem, 2011).

System: not listed separately
Test: Antiprion activity against human prion protein Fukuoka-1 infected mouse F3 cells assessed as reduction of PrPSc level by Western blot method
Assay type: cell-based
Settings: N2a #58 F3

First: CN1CCN(c2ccc(Nc3ccnc4cc(Cl)ccc34)cc2)CC1
Second: Clc1ccc2c(NC3CCN(Cc4ccccc4)CC3)ccnc2c1
The EC50 of the first is 1.7-fold higher: 2040 nM for the first, 1200 nM for the second. The second is the more potent here.

COc1ccc2nc3cc(Cl)ccc3c(NC3CCN(CCc4ccc(C)cc4)CC3)c2c1 and COc1ccc2nc3cc(Cl)ccc3c(NC3CCN(Cc4ccc(C)cc4)CC3)c2c1 are within 1.5-fold of each other in EC50: 690 nM for the first, 630 nM for the second.

Going from COc1ccc2nc3cc(Cl)ccc3c(Nc3ccc(CN4CCCCC4)cc3)c2c1 to COc1ccc2nc3cc(Cl)ccc3c(NC3CCN(CCc4ccccc4)CC3)c2c1, the EC50 falls from 640 nM to 190 nM (3.4-fold).

System: MDCK
Test: Permeability from basolateral to apical side of in wild type MDCK cells assessed as adsorption on transwell at 10 uM after 2 hrs
Assay type: ADME, cell-based, Canis lupus familiaris
Settings: dog

For CCN(CC)CCCC(C)Nc1c2ccc(Cl)cc2nc2ccc(OC)cc12 (centres undefined) [QUINACRINE], the permeability was 3.2%.

System: not listed separately
Test: Solubility of the compound in phosphate buffer at 50 uM
Assay type: physicochemical
Settings: not given

For COc1ccc2nc3cc(Cl)ccc3c(Nc3ccccc3)c2c1, the solubility was “Insoluble”.

System: MDCK
Test: Permeability from apical to basolateral side of in wild type MDCK cells assessed as adsorption on transwell at 10 uM after 2 hrs
Assay type: ADME, cell-based, Canis lupus familiaris
Settings: dog

CCN(CC)CCCC(C)Nc1c2ccc(Cl)cc2nc2ccc(OC)cc12 (centres undefined) [QUINACRINE] showed a permeability of 5.3%.

System: N167
Test: Antiprion activity against mouse prion protein 22L infected mouse N167 cells assessed as drug level required for more than 99 percent reduction of PrPSc level by Western blot method
Assay type: cell-based
Settings: not given

CN1CCN(c2ccc(Nc3ccnc4cc(Cl)ccc34)cc2)CC1 and Clc1ccc2c(NC3CCN(Cc4ccccc4)CC3)ccnc2c1 are the same in Activity: 2 µM for the first, 2 µM for the second.

COc1ccc2nc3cc(Cl)ccc3c(NC3CCN(CCc4ccc(C)cc4)CC3)c2c1 and COc1ccc2nc3cc(Cl)ccc3c(NC3CCN(Cc4ccc(C)cc4)CC3)c2c1 are the same in Activity: 1 µM for the first, 1 µM for the second.

COc1ccc2nc3cc(Cl)ccc3c(Nc3ccc(CN4CCCCC4)cc3)c2c1 and COc1ccc2nc3cc(Cl)ccc3c(NC3CCN(CCc4ccccc4)CC3)c2c1 are the same in Activity: 1 µM for the first, 1 µM for the second.

System: MDCK
Test: Permeability from apical to basolateral side of in P-glycoprotein-mediated MDCK cells over expressing human MDR1 assessed as cell retention at 10 uM after 2 hrs
Assay type: ADME, cell-based, Canis lupus familiaris
Settings: dog

In the case of CCN(CC)CCCC(C)Nc1c2ccc(Cl)cc2nc2ccc(OC)cc12 (centres undefined) [QUINACRINE], the permeability is reported as 35.5%.

System: MDCK
Test: Permeability from apical to basolateral side of in wild type MDCK cells assessed as cell retention at 10 uM after 2 hrs
Assay type: ADME, cell-based, Canis lupus familiaris
Settings: dog

In the case of CCN(CC)CCCC(C)Nc1c2ccc(Cl)cc2nc2ccc(OC)cc12 (centres undefined) [QUINACRINE], the permeability is reported as 80.2%.

System: human MDR1
Assay type: ADME, cell-based, Canis lupus familiaris
Settings: dog, MDCK-MDR1

With CCN(CC)CCCC(C)Nc1c2ccc(Cl)cc2nc2ccc(OC)cc12 (centres undefined) [QUINACRINE] the Papp A→B at 2 h, 10 µM was 1.23 ×10⁻⁶ cm/s.

System: MDCK
Assay type: ADME, cell-based, Canis lupus familiaris
Settings: dog, 2 h, 10 µM

CCN(CC)CCCC(C)Nc1c2ccc(Cl)cc2nc2ccc(OC)cc12 (centres undefined) [QUINACRINE] showed a permeability of 3.9%.

System: not listed separately
Test: Antiprion activity against mouse prion protein RML infected mouse ScN2a cells assessed as reduction of PrPSc level by Western blot method
Assay type: cell-based
Settings: not given

Compared with CCN(CC)CCCC(C)Nc1c2ccc(Cl)cc2nc2ccc(OC)cc12 (centres undefined) [QUINACRINE], COc1ccc2nc3cc(Cl)ccc3c(Nc3ccccc3)c2c1 is 2.3-fold higher in EC50: 230 nM for the first, 540 nM for the second. The first is the more potent here.

CN1CCN(c2ccc(Nc3ccnc4cc(Cl)ccc34)cc2)CC1 and Clc1ccc2c(NC3CCN(Cc4ccccc4)CC3)ccnc2c1 are within 1.5-fold of each other in EC50: 140 nM for the first, 150 nM for the second.

First: COc1ccc2nc3cc(Cl)ccc3c(NC3CCN(CCc4ccc(C)cc4)CC3)c2c1
Second: COc1ccc2nc3cc(Cl)ccc3c(NC3CCN(Cc4ccc(C)cc4)CC3)c2c1
The EC50 of the first is 2-fold lower: 76 nM for the first, 150 nM for the second.

COc1ccc2nc3cc(Cl)ccc3c(Nc3ccc(CN4CCCCC4)cc3)c2c1 and COc1ccc2nc3cc(Cl)ccc3c(NC3CCN(CCc4ccccc4)CC3)c2c1 are within 1.5-fold of each other in EC50: 99 nM for the first, 130 nM for the second.

System: MDCK
Test: Permeability from basolateral to apical side of in P-glycoprotein-mediated MDCK cells over expressing human MDR1 assessed as cell retention at 10 uM after 2 hrs
Assay type: ADME, cell-based, Canis lupus familiaris
Settings: dog

CCN(CC)CCCC(C)Nc1c2ccc(Cl)cc2nc2ccc(OC)cc12 (centres undefined) [QUINACRINE] showed a permeability of 24.5%.

System: MDCK
Test: Permeability from basolateral to apical side of in wild type MDCK cells assessed as cell retention at 10 uM after 2 hrs
Assay type: ADME, cell-based, Canis lupus familiaris
Settings: dog

CCN(CC)CCCC(C)Nc1c2ccc(Cl)cc2nc2ccc(OC)cc12 (centres undefined) [QUINACRINE] showed a permeability of 27.7%.

System: ScN2a
Test: Antiprion activity against mouse prion protein RML infected mouse ScN2a cells assessed as drug level required for more than 99 percent reduction of PrPSc level by Western blot method
Assay type: cell-based
Settings: not given

CCN(CC)CCCC(C)Nc1c2ccc(Cl)cc2nc2ccc(OC)cc12 (centres undefined) [QUINACRINE] and COc1ccc2nc3cc(Cl)ccc3c(NC3CCN(CCc4ccc(C)cc4)CC3)c2c1 are within 1.5-fold of each other in Activity: 0.8 µM for the first, 1 µM for the second.

CN1CCN(c2ccc(Nc3ccnc4cc(Cl)ccc34)cc2)CC1 and Clc1ccc2c(NC3CCN(Cc4ccccc4)CC3)ccnc2c1 are the same in Activity: 1 µM for the first, 1 µM for the second.

Going from COc1ccc2nc3cc(Cl)ccc3c(Nc3ccc(CN4CCCCC4)cc3)c2c1 to COc1ccc2nc3cc(Cl)ccc3c(NC3CCN(Cc4ccc(C)cc4)CC3)c2c1, the Activity rises from 0.5 µM to 3 µM (6-fold).

COc1ccc2nc3cc(Cl)ccc3c(NC3CCN(CCc4ccccc4)CC3)c2c1 showed an Activity of 0.5 µM.

Biological target: Major prion protein (Homo sapiens) (UniProt P04156)
Test: Binding affinity to truncated human PrP 121-231 at 50 uM by surface plasmon resonance method
Settings: not given

Going from CCN(CC)CCCC(C)Nc1c2ccc(Cl)cc2nc2ccc(OC)cc12 (centres undefined) [QUINACRINE] to COc1ccc2nc3cc(Cl)ccc3c(NC3CCN(CCc4ccc(C)cc4)CC3)c2c1, the RUmax rises from 87.3% to 148%.

First: CN1CCN(c2ccc(Nc3ccnc4cc(Cl)ccc34)cc2)CC1
Second: Clc1ccc2c(NC3CCN(Cc4ccccc4)CC3)ccnc2c1
The RUmax of the first is higher: 165% for the first, 114% for the second.

Going from COc1ccc2nc3cc(Cl)ccc3c(Nc3ccc(CN4CCCCC4)cc3)c2c1 to COc1ccc2nc3cc(Cl)ccc3c(NC3CCN(Cc4ccc(C)cc4)CC3)c2c1, the RUmax falls from 144% to 69.8%.

Molecule COc1ccc2nc3cc(Cl)ccc3c(NC3CCN(CCc4ccccc4)CC3)c2c1 has an RUmax of 174%.

System: MDCK
Assay type: ADME, cell-based, Canis lupus familiaris
Settings: dog, 2 h, 10 µM
Remark: another data set of the same source

In the case of CCN(CC)CCCC(C)Nc1c2ccc(Cl)cc2nc2ccc(OC)cc12 (centres undefined) [QUINACRINE], the permeability is reported as 5.5%.

System: not listed separately
Test: Effective permeability of the compound at pH 7.4 at 30 to 50 uM by PAMPA assay
Assay type: ADME
Settings: read-out: Peff

First: CCN(CC)CCCC(C)Nc1c2ccc(Cl)cc2nc2ccc(OC)cc12 (centres undefined) [QUINACRINE]
Second: COc1ccc2nc3cc(Cl)ccc3c(NC3CCN(CCc4ccc(C)cc4)CC3)c2c1
The Papp at up to 50 µM of the first is 2.6-fold higher: 19.3 ×10⁻⁶ cm/s for the first, 7.39 ×10⁻⁶ cm/s for the second.

COc1ccc2nc3cc(Cl)ccc3c(Nc3ccc(CN4CCCCC4)cc3)c2c1 and COc1ccc2nc3cc(Cl)ccc3c(NC3CCN(CCc4ccccc4)CC3)c2c1 are within 1.5-fold of each other in Papp at up to 50 µM: 5.28 ×10⁻⁶ cm/s for the first, 7.68 ×10⁻⁶ cm/s for the second.

System: N2a #58 F3
Test: Antiprion activity against human prion protein Fukuoka-1 infected mouse F3 cells assessed as drug level required for more than 99 percent reduction of PrPSc level by Western blot method
Assay type: cell-based
Settings: not given

COc1ccc2nc3cc(Cl)ccc3c(NC3CCN(CCc4ccc(C)cc4)CC3)c2c1 and COc1ccc2nc3cc(Cl)ccc3c(NC3CCN(Cc4ccc(C)cc4)CC3)c2c1 are the same in Activity: 3 µM for the first, 3 µM for the second.

First: COc1ccc2nc3cc(Cl)ccc3c(Nc3ccc(CN4CCCCC4)cc3)c2c1
Second: COc1ccc2nc3cc(Cl)ccc3c(NC3CCN(CCc4ccccc4)CC3)c2c1
The Activity of the first is 1.5-fold higher: 3 µM for the first, 2 µM for the second.

With Clc1ccc2c(NC3CCN(Cc4ccccc4)CC3)ccnc2c1 the Activity was 3 µM.

System: human MDR1
Assay type: ADME, cell-based, Canis lupus familiaris
Settings: dog, MDCK-MDR1
Remark: another data set of the same source

With CCN(CC)CCCC(C)Nc1c2ccc(Cl)cc2nc2ccc(OC)cc12 (centres undefined) [QUINACRINE] the Papp B→A at 2 h, 10 µM was 6.7 ×10⁻⁶ cm/s.

System: not listed separately
Test: Antiprion activity against mouse prion protein 22L infected mouse N167 cells assessed as reduction of PrPSc level by Western blot method
Assay type: cell-based
Settings: not given

Compared with CCN(CC)CCCC(C)Nc1c2ccc(Cl)cc2nc2ccc(OC)cc12 (centres undefined) [QUINACRINE], COc1ccc2nc3cc(Cl)ccc3c(NC3CCN(CCc4ccc(C)cc4)CC3)c2c1 is 2-fold lower in EC50: 590 nM for the first, 300 nM for the second.

Compared with CN1CCN(c2ccc(Nc3ccnc4cc(Cl)ccc34)cc2)CC1, Clc1ccc2c(NC3CCN(Cc4ccccc4)CC3)ccnc2c1 is 2.3-fold lower in EC50: 530 nM for the first, 230 nM for the second.

COc1ccc2nc3cc(Cl)ccc3c(Nc3ccc(CN4CCCCC4)cc3)c2c1 and COc1ccc2nc3cc(Cl)ccc3c(NC3CCN(Cc4ccc(C)cc4)CC3)c2c1 are within 1.5-fold of each other in EC50: 510 nM for the first, 620 nM for the second.

COc1ccc2nc3cc(Cl)ccc3c(NC3CCN(CCc4ccccc4)CC3)c2c1 showed an EC50 of 230 nM.

System: not listed separately
Test: Cytotoxicity against mouse N2A cells assessed as maximal tolerant concentration
Assay type: cell-based
Settings: read-out: MTD

Compared with CCN(CC)CCCC(C)Nc1c2ccc(Cl)cc2nc2ccc(OC)cc12 (centres undefined) [QUINACRINE], COc1ccc2nc3cc(Cl)ccc3c(Nc3ccccc3)c2c1 is 2-fold higher in MNTC: 2.5 µM for the first, 5 µM for the second.

Compared with CN1CCN(c2ccc(Nc3ccnc4cc(Cl)ccc34)cc2)CC1, Clc1ccc2c(NC3CCN(Cc4ccccc4)CC3)ccnc2c1 is higher in MNTC: 10 µM for the first, > 10 µM for the second.

Compared with COc1ccc2nc3cc(Cl)ccc3c(NC3CCN(CCc4ccc(C)cc4)CC3)c2c1, COc1ccc2nc3cc(Cl)ccc3c(NC3CCN(Cc4ccc(C)cc4)CC3)c2c1 is 1.7-fold higher in MNTC: 3 µM for the first, 5 µM for the second.

Compared with COc1ccc2nc3cc(Cl)ccc3c(Nc3ccc(CN4CCCCC4)cc3)c2c1, COc1ccc2nc3cc(Cl)ccc3c(NC3CCN(CCc4ccccc4)CC3)c2c1 is 2.5-fold lower in MNTC: 5 µM for the first, 2 µM for the second.
